Results on 22 compounds are retold here after US20240174674A1, “NITROGEN-CONTAINING POLYCYCLIC FUSED RING COMPOUND, PHARMACEUTICAL COMPOSITION THEREOF, PREPARATION METHOD THEREFOR, AND USE THEREOF” (APPLIED PHARMACEUTICAL SCIENCE, INC., priority 2021, published 2024).

This assay addresses RET G810R (Homo sapiens (Human), UniProt P07949, G810R). Briefly: HTRF KinEASE-TK kinase activity test, RET G810R. As to conditions: for inhibitory activity against RET G810R relative to that of selpercatinib (LOXO-292): fold versus selpercatinib (LOXO-292). A general note: In TR-FRET formats the signal depends on donor and acceptor labels being close together.
The mark [1] stands for this setting: read-out: RET G810R IC50, HTRF kinase assay.

As a reminder, the IC50 is the point on the concentration scale where inhibition reaches its midpoint.

Where two headings read alike, the source gives them in different places.

RET G810R, sequence (P07949 29-1114 G810R): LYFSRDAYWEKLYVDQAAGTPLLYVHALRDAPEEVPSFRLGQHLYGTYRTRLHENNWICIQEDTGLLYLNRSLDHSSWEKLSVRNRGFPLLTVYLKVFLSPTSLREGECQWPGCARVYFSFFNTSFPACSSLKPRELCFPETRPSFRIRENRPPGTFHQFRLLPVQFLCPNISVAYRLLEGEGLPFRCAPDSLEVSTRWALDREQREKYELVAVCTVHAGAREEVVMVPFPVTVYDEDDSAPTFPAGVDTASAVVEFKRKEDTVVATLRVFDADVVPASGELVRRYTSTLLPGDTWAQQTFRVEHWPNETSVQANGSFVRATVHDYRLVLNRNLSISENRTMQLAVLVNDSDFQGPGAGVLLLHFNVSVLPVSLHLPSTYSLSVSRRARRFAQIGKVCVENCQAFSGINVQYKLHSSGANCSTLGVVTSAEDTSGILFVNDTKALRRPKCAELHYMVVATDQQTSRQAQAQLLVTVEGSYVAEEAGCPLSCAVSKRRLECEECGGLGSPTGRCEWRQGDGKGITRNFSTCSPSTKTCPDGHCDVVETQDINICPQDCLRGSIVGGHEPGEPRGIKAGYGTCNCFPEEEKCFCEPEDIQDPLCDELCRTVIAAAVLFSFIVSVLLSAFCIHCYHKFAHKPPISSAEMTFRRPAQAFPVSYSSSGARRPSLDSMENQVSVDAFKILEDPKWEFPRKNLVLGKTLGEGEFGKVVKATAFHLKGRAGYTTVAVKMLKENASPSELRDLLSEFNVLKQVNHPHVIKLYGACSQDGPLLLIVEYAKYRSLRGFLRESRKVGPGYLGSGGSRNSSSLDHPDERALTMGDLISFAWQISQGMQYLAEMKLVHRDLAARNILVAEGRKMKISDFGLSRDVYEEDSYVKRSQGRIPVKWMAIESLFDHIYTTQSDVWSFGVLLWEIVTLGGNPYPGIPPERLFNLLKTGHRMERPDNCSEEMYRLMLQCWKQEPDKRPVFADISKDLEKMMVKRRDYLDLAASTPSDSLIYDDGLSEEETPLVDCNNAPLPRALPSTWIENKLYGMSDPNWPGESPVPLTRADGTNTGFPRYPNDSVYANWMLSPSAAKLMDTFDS

As for `O=C(N[C@H]1CCN(c2ccc(-c3cc(OCC(F)F)cn4nc5[nH]ncc5c34)cn2)C[C@H]1O)c1c(F)cccc1F` [Compound 268, N-((3R,4S)-1-(5-(6-(2,2-difluoroethoxy)-1H-pyrazolo[3′,4′:3,4]pyrazolo[1,5-α]pyridin-4-yl)pyridin-2-yl)-3-hydroxypiperidin-4-yl)-2,6-difluorobenzamide], the “inhibitory activity against RET G810R relative to that of selpercatinib (LOXO-292)” value is recorded as no less than 10 times. For the same compound, the IC50 under setting [1] was found to be 2.8 nM.

`CCOc1cc(-c2ccc(N3CC[C@H](NS(=O)(=O)c4c(F)cccc4F)[C@H](O)C3)nc2)c2c3cn[nH]c3nn2c1` [Compound 269, N-((3R,4S)-1-(5-(6-ethoxy-1H-pyrazolo[3′,4′:3,4]pyrazolo[1,5-α]pyridin-4-yl)pyridin-2-yl)-3-hydroxypiperidin-4-yl)-2,6-difluorobenzenesulfonamide]: the “inhibitory activity against RET G810R relative to that of selpercatinib (LOXO-292)” value is listed as no less than 10 times. Besides, under setting [1], the IC50 was 6.2 nM.

`CCOc1cc(-c2ccc(N3CC[C@H](NC(=O)c4cc(F)ccc4F)[C@H](O)C3)nc2)c2c3cn[nH]c3nn2c1` [Compound 273, N-((3R,4S)-1-(5-(6-ethoxy-1H-pyrazolo[3′,4′:3,4]pyrazolo[1,5-α]pyridin-4-yl)pyridin-2-yl)-3-hydroxypiperidin-4-yl)-2,5-difluorobenzamide]: the “inhibitory activity against RET G810R relative to that of selpercatinib (LOXO-292)” value is on record as no less than 10 times. The IC50 under setting [1] came out at 1.8 nM.

For `CCOc1cc(-c2ccc(N3CC[C@H](NC(=O)c4c(F)ccc(F)c4F)[C@H](O)C3)nc2)c2c3cn[nH]c3nn2c1` [Compound 274, N-((3R,4S)-1-(5-(6-ethoxy-1H-pyrazolo[3′,4′:3,4]pyrazolo[1,5-α]pyridin-4-yl)pyridin-2-yl)-3-hydroxypiperidin-4-yl)-2,3,6-trifluorobenzamide], the “inhibitory activity against RET G810R relative to that of selpercatinib (LOXO-292)” value was no less than 10 times. For the same compound, the half-inhibitory concentration (IC50) under setting [1] worked out at 1.3 nM.

On to `CCOc1cc(-c2ccc(N3CC[C@H](NC(=O)c4c(F)cccc4Cl)[C@H](O)C3)nc2)c2c3cn[nH]c3nn2c1` [Compound 275, N-((3R,4S)-1-(5-(6-ethoxy-1H-pyrazolo[3′,4′:3,4]pyrazolo[1,5-α]pyridin-4-yl)pyridin-2-yl)-3-hydroxypiperidin-4-yl)-2-chloro-6-fluorobenzamide], for which the “inhibitory activity against RET G810R relative to that of selpercatinib (LOXO-292)” value is recorded as no less than 10 times. Moreover, the IC50 under setting [1] was 0.8 nM.

For `CCOc1cc(-c2ccc(N3CC[C@H](NC(=O)c4cc(F)ccc4Cl)[C@H](O)C3)nc2)c2c3cn[nH]c3nn2c1` [Compound 276, 2-chloro-N-((3R,4S)-1-(5-(6-ethoxy-1H-pyrazolo[3′,4′:3,4]pyrazolo[1,5-α]pyridin-4-yl)pyridin-2-yl)-3-hydroxypiperidin-4-yl)-5-fluorobenzamide], the “inhibitory activity against RET G810R relative to that of selpercatinib (LOXO-292)” value is given as no less than 10 times. Further, the half-maximal inhibitory concentration (IC50) under setting [1] stood at 0.7 nM.

With `CCOc1cc(-c2ccc(N3CC[C@H](NC(=O)c4cc(F)ccc4C)[C@H](O)C3)nc2)c2c3cn[nH]c3nn2c1` [Compound 277, N-((3R,4S)-1-(5-(6-ethoxy-1H-pyrazolo[3′,4′:3,4]pyrazolo[1,5-α]pyridin-4-yl)pyridin-2-yl)-3-hydroxypiperidin-4-yl)-5-fluoro-2-methylbenzamide], the “inhibitory activity against RET G810R relative to that of selpercatinib (LOXO-292)” value is no less than 10 times. Under setting [1], the IC50 stood at 1.2 nM.

Turning to `CCOc1cc(-c2ccc(N3CC[C@H](NC(=O)c4c(C)cccc4Cl)[C@H](O)C3)nc2)c2c3cn[nH]c3nn2c1` [Compound 278, 2-chloro-N-((3R,4S)-1-(5-(6-ethoxy-1H-pyrazolo[3′,4′:3,4]pyrazolo[1,5-α]pyridin-4-yl)pyridin-2-yl)-3-hydroxypiperidin-4-yl)-6-methylbenzamide], the “inhibitory activity against RET G810R relative to that of selpercatinib (LOXO-292)” value is recorded as no less than 10 times. The IC50 under setting [1] stood at 0.9 nM.

`CCOc1cc(-c2ccc(N3CC[C@H](NC(=O)c4ccccc4C(F)(F)F)[C@H](O)C3)nc2)c2c3cn[nH]c3nn2c1` [Compound 279, N-((3R,4S)-1-(5-(6-ethoxy-1H-pyrazolo[3′,4′:3,4]pyrazolo[1,5-α]pyridin-4-yl)pyridin-2-yl)-3-hydroxypiperidin-4-yl)-2-(trifluoromethyl)benzamide]: the “inhibitory activity against RET G810R relative to that of selpercatinib (LOXO-292)” value is listed as no less than 10 times. Under setting [1], the IC50 is 2.2 nM.

Consider `CCOc1cc(-c2ccc(N3CC[C@H](NC(=O)c4ccccc4C#N)[C@H](O)C3)nc2)c2c3cn[nH]c3nn2c1` [Compound 280, 2-cyano-N-((3R,4S)-1-(5-(6-ethoxy-1H-pyrazolo[3′,4′:3,4]pyrazolo[1,5-α]pyridin-4-yl)pyridin-2-yl)-3-hydroxypiperidin-4-yl)benzamide], for which the “inhibitory activity against RET G810R relative to that of selpercatinib (LOXO-292)” value is recorded as no less than 10 times. Also, the concentration for half-maximal inhibition (IC50) under setting [1] is 2.1 nM.

Turning to `CCOc1cc(-c2ccc(N3CC[C@H](NC(=O)C4(C(F)(F)F)CCC4)[C@H](O)C3)nc2)c2c3cn[nH]c3nn2c1` [Compound 281, N-((3R,4S)-1-(5-(6-ethoxy-1H-pyrazolo[3′,4′:3,4]pyrazolo[1,5-α]pyridin-4-yl)pyridin-2-yl)-3-hydroxypiperidin-4-yl)-1-(trifluoromethyl)cyclobutane-1-carboxamide], the “inhibitory activity against RET G810R relative to that of selpercatinib (LOXO-292)” value is no less than 10 times. Moreover, the 50% inhibitory concentration (IC50) under setting [1] was 1.5 nM.

`CCOc1cc(-c2ccc(N3CC[C@H](NC(=O)C4(F)CC4)[C@H](O)C3)nc2)c2c3cn[nH]c3nn2c1` [Compound 282, N-((3R,4S)-1-(5-(6-ethoxy-1H-pyrazolo[3′,4′:3,4]pyrazolo[1,5-α]pyridin-4-yl)pyridin-2-yl)-3-hydroxypiperidin-4-yl)-1-fluorocyclopropane-1-carboxamide]: the “inhibitory activity against RET G810R relative to that of selpercatinib (LOXO-292)” value is given as no less than 10 times. The 50% inhibitory concentration (IC50) under setting [1] was 3.5 nM.

Turning to `CCOc1cc(-c2ccc(N3CC[C@H](NC(=O)C(C)C(C)C)[C@H](O)C3)nc2)c2c3cn[nH]c3nn2c1` (stereo partly drawn) [Compound 283, N-((3R,4S)-1-(5-(6-ethoxy-1H-pyrazolo[3′,4′:3,4]pyrazolo[1,5-α]pyridin-4-yl)pyridin-2-yl)-3-hydroxypiperidin-4-yl)-2,3-dimethylbutanamide], under setting [1], the IC50 is 9.9 nM.

Take `CCOc1cc(-c2ccc(N3CC[C@H](NC(=O)c4ncccc4C(F)(F)F)[C@H](O)C3)nc2)c2c3cn[nH]c3nn2c1` [Compound 284, N-((3R,4S)-1-(5-(6-ethoxy-1H-pyrazolo[3′,4′:3,4]pyrazolo[1,5-α]pyridin-4-yl)pyridin-2-yl)-3-hydroxypiperidin-4-yl)-3-(trifluoromethyl)picolinamide]: under setting [1], the half-maximal inhibitory concentration (IC50) stood at 4.2 nM.

Take `CCOc1cc(-c2ccc(N3CC[C@H](NC(=O)c4ncccc4F)[C@H](O)C3)nc2)c2c3cn[nH]c3nn2c1` [Compound 286, N-((3R,4S)-1-(5-(6-ethoxy-1H-pyrazolo[3′,4′:3,4]pyrazolo[1,5-α]pyridin-4-yl)pyridin-2-yl)piperidin-3-hydroxypiperidin-4-yl)-3-fluoropicolinamide]: under setting [1], the IC50 worked out at 10.3 nM.

In the case of `CCOc1cc(-c2ccc(N3CCC(CO)(NC(=O)c4cc(F)ccc4F)CC3)nc2)c2c3cn[nH]c3nn2c1` [Compound 291, N-(1-(5-(6-ethoxy-1H-pyrazolo[3′,4′:3,4]pyrazolo[1,5-α]pyridin-4-yl)pyridin-2-yl)-4-(hydroxymethyl)piperidin-4-yl)-2,5-difluorobenzamide], the “inhibitory activity against RET G810R relative to that of selpercatinib (LOXO-292)” value was no less than 10 times. For the same compound, the IC50 under setting [1] came out at 1.6 nM.

For `O=C(N[C@H]1CCN(c2ccc(-c3cc(OCC(F)F)cn4nc5[nH]ncc5c34)cn2)C[C@H]1O)c1c(F)cccc1Cl` [Compound 292, N-((3R,4S)-1-(5-(6-(2,2-difluoroethoxy)-1H-pyrazolo[3′,4′:3,4]pyrazolo[1,5-α]pyridin-4-yl)pyridin-2-yl)piperidin-3-hydroxypiperidin-4-yl)-2-chloro-6-fluorobenzamide], the “inhibitory activity against RET G810R relative to that of selpercatinib (LOXO-292)” value is reported as no less than 10 times. Further, the IC50 under setting [1] is 1.8 nM.

Regarding `O=C(N[C@H]1CCN(c2ccc(-c3cc(OCC(F)F)cn4nc5[nH]ncc5c34)cn2)C[C@H]1O)c1cc(F)ccc1Cl` [Compound 293, N-((3R,4S)-1-(5-(6-(2,2-difluoroethoxy)-1H-pyrazolo[3′,4′:3,4]pyrazolo[1,5-α]pyridin-4-yl)pyridin-2-yl)piperidin-3-hydroxypiperidin-4-yl)-2-chloro-5-fluorobenzamide], the “inhibitory activity against RET G810R relative to that of selpercatinib (LOXO-292)” value was no less than 10 times. Further, the IC50 under setting [1] is 1.6 nM.

On to `CCOc1cc(-c2ccc(N3CC[C@H](NC(=O)c4c(F)cccc4F)[C@@H](O)C3)nc2)c2c3cn[nH]c3nn2c1` [Compound 294, N-((3S,4S)-1-(5-(6-ethoxy-1H-pyrazolo[3′,4′:3,4]pyrazolo[1,5-α]pyridin-4-yl)pyridin-2-yl)-3-hydroxypiperidin-4-yl)-2,6-difluorobenzamide], for which the IC50 under setting [1] amounted to 4.1 nM.

As for `O=C(N[C@H]1CCN(c2ccc(-c3cc(OCCF)cn4nc5[nH]ncc5c34)cn2)C[C@@H]1O)c1c(F)cccc1F` [Compound 295, N-((3S,4S)-1-(5-(6-(2-fluoroethoxy)-1H-pyrazolo[3′,4′:3,4]pyrazolo[1,5-α]pyridin-4-yl)pyridin-2-yl)-3-hydroxypiperidin-4-yl)-2,6-difluorobenzamide], the “inhibitory activity against RET G810R relative to that of selpercatinib (LOXO-292)” value was no less than 10 times. The IC50 under setting [1] is 2.1 nM.

With `O=C(N[C@H]1CCN(c2ccc(-c3cc(OCC(F)F)cn4nc5[nH]ncc5c34)cn2)C[C@@H]1O)c1c(F)cccc1F` [Compound 296, N-((3S,4S)-1-(5-(6-(2,2-difluoroethoxy)-1H-pyrazolo[3′,4′:3,4]pyrazolo[1,5-α]pyridin-4-yl)pyridin-2-yl)-3-hydroxypiperidin-4-yl)-2,6-difluorobenzamide], the “inhibitory activity against RET G810R relative to that of selpercatinib (LOXO-292)” value was no less than 10 times. The IC50 under setting [1] was found to be 2.1 nM.

For the compound `CCOc1cc(-c2ccc(N3CC4CC(C3)N4Cc3ccc(OC)nc3)nc2)c2c3cc[nH]c3nn2c1` [Compound 297, 6-ethoxy-4-(6-(6-((6-methoxypyridin-3-yl)methyl)-3,6-diazabicyclo[3.1.1]heptan-3-yl)pyridin-3-yl)-1H-pyrrolo[2′,3′:3,4]pyrazolo[1,5-α]pyridine], the half-inhibitory concentration (IC50) amounted to 9.6 nM.
